Experimental data published in ChEMBL document CHEMBL4507261, “Data for DCP probe A-192621” (2021).

How the values were obtained:
[1] = target: Ribosomal protein S6 kinase alpha-5 (Homo sapiens) (UniProt O75582); conditions: Compound concentration 1000.0 nM
[2] = target: Serine/threonine-protein kinase MRCK beta (Homo sapiens) (UniProt Q9Y5S2); conditions: Compound concentration 1000.0 nM
[3] = target: Type-1 angiotensin II receptor (Homo sapiens) (UniProt P30556); test: AT1 (h) Eurofins-Cerep binding assay; design: ligand concentration 0.05 nM; conditions: filed as antagonist, Compound concentration 10.0 uM
[4] = target: Phosphatidylinositol 4,5-bisphosphate 3-kinase catalytic subunit delta isoform (Homo sapiens) (UniProt O00329); conditions: Compound concentration 1000.0 nM
[5] = target: Mitogen-activated protein kinase kinase kinase 6 (Homo sapiens) (UniProt O95382); conditions: Compound concentration 1000.0 nM
[6] = target: Serine/threonine-protein kinase 10 (Homo sapiens) (UniProt O94804); conditions: Compound concentration 1000.0 nM
[7] = target: Cyclin-dependent kinase 17 (Homo sapiens) (UniProt Q00537); conditions: Compound concentration 1000.0 nM
[8] = tested on: Phosphatidylinositol 4,5-bisphosphate 3-kinase catalytic subunit alpha isoform (Homo sapiens), P42336 [H1047Y]; conditions: Compound concentration 1000.0 nM
[9] = target: Ephrin type-B receptor 3 (Homo sapiens) (UniProt P54753); conditions: Compound concentration 1000.0 nM
[10] = target: Peripheral plasma membrane protein CASK (Homo sapiens) (UniProt O14936); conditions: Compound concentration 1000.0 nM
[11] = target: Serine/threonine-protein kinase Nek3 (Homo sapiens) (UniProt P51956); conditions: Compound concentration 1000.0 nM
[12] = target: Serine/threonine-protein kinase tousled-like 1 (Homo sapiens) (UniProt Q9UKI8); conditions: Compound concentration 1000.0 nM
[13] = target: Homeodomain-interacting protein kinase 4 (Homo sapiens) (UniProt Q8NE63); conditions: Compound concentration 1000.0 nM
[14] = target: Estrogen receptor (Homo sapiens) (UniProt P03372); test: Estrogen ER alpha (h) Eurofins-Cerep binding assay; design: ligand concentration 0.5 nM; conditions: filed as agonist, Compound concentration 10.0 uM
[15] = tested on: Phosphatidylinositol 4,5-bisphosphate 3-kinase catalytic subunit alpha isoform (Homo sapiens), P42336 [E545K]; conditions: Compound concentration 1000.0 nM
[16] = target: Serine/threonine-protein kinase pim-1 (Homo sapiens) (UniProt P11309); conditions: Compound concentration 1000.0 nM
[17] = target: Calcitonin-gene-related peptide receptor, CALCRL/RAMP1 (Homo sapiens) (UniProt O60894+Q16602); test: CGRP (h) Eurofins-Cerep binding assay; type: protein-complex assay; design: ligand concentration 0.03 nM; conditions: filed as agonist, Compound concentration 10.0 uM
Endothelin-1 receptor = target: T1, Endothelin-1 receptor (Homo sapiens, UniProt P25101); test: Eurofins cellular functional assay - Antagonist (EDNRA)
T1 sequence (P25101 whole entry): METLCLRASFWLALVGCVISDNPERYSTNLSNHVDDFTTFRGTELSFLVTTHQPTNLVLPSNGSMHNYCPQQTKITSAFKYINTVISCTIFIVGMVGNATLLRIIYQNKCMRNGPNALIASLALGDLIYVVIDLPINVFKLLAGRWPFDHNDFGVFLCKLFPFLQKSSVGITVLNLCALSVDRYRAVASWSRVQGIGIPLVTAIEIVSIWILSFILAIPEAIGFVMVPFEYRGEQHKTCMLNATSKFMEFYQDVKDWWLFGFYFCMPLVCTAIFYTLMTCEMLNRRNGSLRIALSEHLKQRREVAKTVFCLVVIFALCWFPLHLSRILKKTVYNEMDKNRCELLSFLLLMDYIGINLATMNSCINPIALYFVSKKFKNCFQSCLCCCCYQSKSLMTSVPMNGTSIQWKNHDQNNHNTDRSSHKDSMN

[18] = target: Ephrin type-A receptor 2 (Homo sapiens) (UniProt P29317); conditions: Compound concentration 1000.0 nM
[19] = target: Rhodopsin kinase GRK7 (Homo sapiens) (UniProt Q8WTQ7); conditions: Compound concentration 1000.0 nM
[20] = target: Cannabinoid receptor 2 (Homo sapiens) (UniProt P34972); test: CB2 (h) Eurofins-Cerep binding assay; design: ligand concentration 0.8 nM; conditions: filed as agonist, Compound concentration 10.0 uM
[21] = target: Serine/threonine-protein kinase 36 (Homo sapiens) (UniProt Q9NRP7); conditions: Compound concentration 1000.0 nM
[22] = target: Dual specificity tyrosine-phosphorylation-regulated kinase 1B (Homo sapiens) (UniProt Q9Y463); conditions: Compound concentration 1000.0 nM
[23] = target: Casein kinase I isoform gamma-3 (Homo sapiens) (UniProt Q9Y6M4); conditions: Compound concentration 1000.0 nM
[24] = target: GABA-A receptor; anion channel (Rattus norvegicus) (UniProt O09028+P15431+P18506+P18508+P19969+P20236+P23574+P23576+P28471+P28473+P30191+P62813+P63079+P63138+Q91ZM7+Q9ES14); test: BZD (central) Eurofins-Cerep binding assay; type: protein-complex assay; design: ligand concentration 0.4 nM; conditions: filed as agonist, Compound concentration 10.0 uM
[25] = target: Cyclin-dependent kinase 4 (Homo sapiens) (UniProt P11802); conditions: Compound concentration 1000.0 nM
[26] = target: Type-2 angiotensin II receptor (Homo sapiens) (UniProt P50052); test: AT2 (h) Eurofins-Cerep binding assay; conditions: filed as agonist, Compound concentration 10.0 uM
[27] = tested on: Leucine-rich repeat serine/threonine-protein kinase 2 (Homo sapiens), Q5S007 [G2019S]; conditions: Compound concentration 1000.0 nM
[28] = target: Cyclin-dependent kinase 15 (Homo sapiens) (UniProt Q96Q40); conditions: Compound concentration 1000.0 nM
[29] = target: TGF-beta receptor type-2 (Homo sapiens) (UniProt P37173); conditions: Compound concentration 1000.0 nM
[30] = target: Macrophage colony-stimulating factor 1 receptor (Homo sapiens) (UniProt P07333); conditions: Compound concentration 1000.0 nM
[31] = target: Serine/threonine-protein kinase WNK3 (Homo sapiens) (UniProt Q9BYP7); conditions: Compound concentration 1000.0 nM
[32] = target: Tyrosine-protein kinase ABL1 (Homo sapiens) (UniProt P00519); conditions: Compound concentration 1000.0 nM
[33] = target: Serine/threonine-protein kinase VRK2 (Homo sapiens) (UniProt Q86Y07); conditions: Compound concentration 1000.0 nM
[34] = target: Inhibitor of nuclear factor kappa-B kinase subunit alpha (Homo sapiens) (UniProt O15111); conditions: Compound concentration 1000.0 nM
[35] = target: Serine/threonine-protein kinase BRSK2 (Homo sapiens) (UniProt Q8IWQ3); conditions: Compound concentration 1000.0 nM
[36] = target: Cyclin-dependent kinase 2 (Homo sapiens) (UniProt P24941); conditions: Compound concentration 1000.0 nM
[37] = target: Receptor tyrosine-protein kinase erbB-2 (Homo sapiens) (UniProt P04626); conditions: Compound concentration 1000.0 nM

Sequence of Macrophage colony-stimulating factor 1 receptor (Homo sapiens) (P07333 whole entry): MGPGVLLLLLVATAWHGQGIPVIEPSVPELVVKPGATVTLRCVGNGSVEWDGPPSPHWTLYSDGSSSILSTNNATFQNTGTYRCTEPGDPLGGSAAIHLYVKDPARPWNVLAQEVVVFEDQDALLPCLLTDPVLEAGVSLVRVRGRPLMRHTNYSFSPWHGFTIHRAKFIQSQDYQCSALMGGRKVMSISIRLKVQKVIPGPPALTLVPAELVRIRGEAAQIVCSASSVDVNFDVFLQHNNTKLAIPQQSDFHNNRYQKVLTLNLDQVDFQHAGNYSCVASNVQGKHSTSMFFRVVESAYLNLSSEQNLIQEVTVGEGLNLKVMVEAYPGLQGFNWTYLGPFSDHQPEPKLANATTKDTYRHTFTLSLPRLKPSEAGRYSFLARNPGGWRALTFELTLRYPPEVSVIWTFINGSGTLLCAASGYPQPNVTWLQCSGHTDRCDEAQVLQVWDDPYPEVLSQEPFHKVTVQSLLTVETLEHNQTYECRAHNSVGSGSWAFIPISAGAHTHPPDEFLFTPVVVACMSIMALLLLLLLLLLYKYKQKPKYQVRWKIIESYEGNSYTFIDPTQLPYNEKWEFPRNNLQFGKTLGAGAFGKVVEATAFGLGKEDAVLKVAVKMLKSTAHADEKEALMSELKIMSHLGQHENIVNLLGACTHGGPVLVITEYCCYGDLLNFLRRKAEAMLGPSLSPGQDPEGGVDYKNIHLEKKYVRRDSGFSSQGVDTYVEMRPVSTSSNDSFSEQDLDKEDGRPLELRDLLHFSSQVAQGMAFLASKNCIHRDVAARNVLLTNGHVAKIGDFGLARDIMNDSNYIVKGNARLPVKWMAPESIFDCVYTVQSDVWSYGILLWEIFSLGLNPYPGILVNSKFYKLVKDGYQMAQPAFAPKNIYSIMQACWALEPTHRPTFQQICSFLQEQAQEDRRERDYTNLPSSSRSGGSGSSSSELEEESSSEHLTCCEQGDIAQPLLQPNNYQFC
Sequence of Phosphatidylinositol 4,5-bisphosphate 3-kinase catalytic subunit delta isoform (Homo sapiens) (O00329 whole entry, canonical isoform): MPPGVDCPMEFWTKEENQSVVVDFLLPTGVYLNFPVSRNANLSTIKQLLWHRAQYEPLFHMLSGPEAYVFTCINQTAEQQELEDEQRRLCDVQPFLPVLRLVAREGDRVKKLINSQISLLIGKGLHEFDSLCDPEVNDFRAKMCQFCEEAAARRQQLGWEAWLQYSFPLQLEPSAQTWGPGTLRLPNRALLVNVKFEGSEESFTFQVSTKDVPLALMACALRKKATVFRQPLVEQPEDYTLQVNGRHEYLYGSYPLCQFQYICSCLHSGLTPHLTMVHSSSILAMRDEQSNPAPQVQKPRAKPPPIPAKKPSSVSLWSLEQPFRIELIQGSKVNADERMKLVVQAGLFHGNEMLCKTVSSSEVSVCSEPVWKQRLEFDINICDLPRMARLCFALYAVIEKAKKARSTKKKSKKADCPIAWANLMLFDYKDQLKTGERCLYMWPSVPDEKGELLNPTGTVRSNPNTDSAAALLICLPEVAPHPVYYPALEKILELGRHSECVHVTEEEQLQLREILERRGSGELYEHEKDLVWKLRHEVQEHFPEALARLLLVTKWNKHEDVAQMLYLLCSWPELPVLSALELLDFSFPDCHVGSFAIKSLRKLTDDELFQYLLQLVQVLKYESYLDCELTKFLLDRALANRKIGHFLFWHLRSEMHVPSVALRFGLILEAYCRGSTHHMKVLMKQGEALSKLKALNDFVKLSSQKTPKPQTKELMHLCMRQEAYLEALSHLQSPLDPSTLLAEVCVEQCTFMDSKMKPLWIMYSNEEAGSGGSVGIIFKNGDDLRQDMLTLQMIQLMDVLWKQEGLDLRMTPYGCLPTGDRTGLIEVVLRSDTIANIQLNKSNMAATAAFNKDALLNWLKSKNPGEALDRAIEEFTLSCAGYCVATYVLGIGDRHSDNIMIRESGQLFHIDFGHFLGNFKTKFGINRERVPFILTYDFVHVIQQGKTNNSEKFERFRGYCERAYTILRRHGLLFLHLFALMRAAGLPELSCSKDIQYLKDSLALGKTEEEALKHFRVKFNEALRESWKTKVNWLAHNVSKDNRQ
Sequence of Cyclin-dependent kinase 4 (Homo sapiens) (P11802 whole entry): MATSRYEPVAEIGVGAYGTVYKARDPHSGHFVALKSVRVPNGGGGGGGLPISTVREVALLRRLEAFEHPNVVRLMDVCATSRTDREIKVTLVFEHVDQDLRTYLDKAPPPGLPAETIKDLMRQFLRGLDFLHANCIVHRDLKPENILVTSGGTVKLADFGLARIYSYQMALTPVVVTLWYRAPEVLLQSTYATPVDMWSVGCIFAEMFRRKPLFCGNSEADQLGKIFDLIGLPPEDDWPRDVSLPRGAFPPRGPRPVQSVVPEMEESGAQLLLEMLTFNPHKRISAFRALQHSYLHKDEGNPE
Sequence of Estrogen receptor (Homo sapiens) (P03372 whole entry, canonical isoform): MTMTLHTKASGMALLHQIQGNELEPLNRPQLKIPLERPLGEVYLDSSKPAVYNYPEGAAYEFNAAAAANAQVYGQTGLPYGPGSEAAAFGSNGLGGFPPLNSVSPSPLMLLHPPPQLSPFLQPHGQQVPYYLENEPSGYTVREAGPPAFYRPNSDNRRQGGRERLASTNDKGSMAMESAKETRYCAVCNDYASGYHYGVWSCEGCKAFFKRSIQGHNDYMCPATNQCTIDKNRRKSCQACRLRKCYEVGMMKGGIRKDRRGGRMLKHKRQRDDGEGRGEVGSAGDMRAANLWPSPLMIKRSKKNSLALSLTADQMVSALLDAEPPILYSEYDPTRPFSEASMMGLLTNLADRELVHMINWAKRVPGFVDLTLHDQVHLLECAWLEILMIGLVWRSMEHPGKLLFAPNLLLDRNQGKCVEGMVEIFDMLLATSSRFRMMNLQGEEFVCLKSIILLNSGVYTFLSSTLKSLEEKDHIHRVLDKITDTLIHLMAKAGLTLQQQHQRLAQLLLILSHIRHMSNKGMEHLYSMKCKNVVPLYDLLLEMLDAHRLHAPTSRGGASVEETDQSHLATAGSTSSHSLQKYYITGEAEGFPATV
Sequence of Serine/threonine-protein kinase MRCK beta (Homo sapiens) (Q9Y5S2 whole entry): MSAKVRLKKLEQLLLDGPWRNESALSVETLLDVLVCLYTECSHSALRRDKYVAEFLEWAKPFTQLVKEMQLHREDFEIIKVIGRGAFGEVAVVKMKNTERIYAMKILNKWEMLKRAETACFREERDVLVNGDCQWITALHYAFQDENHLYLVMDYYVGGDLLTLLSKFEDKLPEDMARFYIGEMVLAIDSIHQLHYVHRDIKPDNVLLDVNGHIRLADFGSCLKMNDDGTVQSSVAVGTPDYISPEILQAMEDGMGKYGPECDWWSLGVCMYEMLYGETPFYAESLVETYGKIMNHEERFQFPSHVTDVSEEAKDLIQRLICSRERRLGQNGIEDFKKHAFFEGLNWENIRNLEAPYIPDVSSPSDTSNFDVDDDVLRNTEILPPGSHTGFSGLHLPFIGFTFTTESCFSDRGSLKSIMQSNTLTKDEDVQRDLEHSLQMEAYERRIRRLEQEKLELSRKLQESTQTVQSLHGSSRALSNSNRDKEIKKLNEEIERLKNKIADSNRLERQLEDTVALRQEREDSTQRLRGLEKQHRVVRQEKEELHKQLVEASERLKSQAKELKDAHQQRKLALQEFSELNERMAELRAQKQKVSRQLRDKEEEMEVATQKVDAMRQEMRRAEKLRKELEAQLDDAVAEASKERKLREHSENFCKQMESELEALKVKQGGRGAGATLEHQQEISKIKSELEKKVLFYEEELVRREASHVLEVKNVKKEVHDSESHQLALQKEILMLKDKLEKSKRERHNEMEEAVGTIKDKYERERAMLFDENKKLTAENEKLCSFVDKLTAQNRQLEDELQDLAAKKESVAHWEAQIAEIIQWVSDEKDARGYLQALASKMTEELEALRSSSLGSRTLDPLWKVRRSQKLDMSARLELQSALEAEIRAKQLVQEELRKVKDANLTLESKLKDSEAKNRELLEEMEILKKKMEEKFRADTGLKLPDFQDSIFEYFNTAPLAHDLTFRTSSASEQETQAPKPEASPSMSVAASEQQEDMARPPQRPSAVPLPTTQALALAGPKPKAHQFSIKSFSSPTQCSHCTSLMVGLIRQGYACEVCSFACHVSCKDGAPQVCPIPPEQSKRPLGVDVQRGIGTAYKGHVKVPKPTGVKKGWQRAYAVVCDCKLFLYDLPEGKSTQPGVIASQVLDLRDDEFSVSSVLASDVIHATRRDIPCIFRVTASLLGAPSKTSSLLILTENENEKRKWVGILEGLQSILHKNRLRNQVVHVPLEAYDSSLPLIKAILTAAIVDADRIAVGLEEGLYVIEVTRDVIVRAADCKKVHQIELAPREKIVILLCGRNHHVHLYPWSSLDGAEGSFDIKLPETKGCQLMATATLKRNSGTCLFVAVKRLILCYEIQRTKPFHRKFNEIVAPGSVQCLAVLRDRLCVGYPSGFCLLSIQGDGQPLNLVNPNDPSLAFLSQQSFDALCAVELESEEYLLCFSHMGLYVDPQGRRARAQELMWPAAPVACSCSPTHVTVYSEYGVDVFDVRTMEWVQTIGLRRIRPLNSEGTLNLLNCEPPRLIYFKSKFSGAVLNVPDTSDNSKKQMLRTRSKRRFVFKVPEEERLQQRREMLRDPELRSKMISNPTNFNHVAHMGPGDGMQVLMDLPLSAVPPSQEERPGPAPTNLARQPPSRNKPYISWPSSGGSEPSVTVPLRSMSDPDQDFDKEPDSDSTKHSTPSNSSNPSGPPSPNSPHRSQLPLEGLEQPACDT
Sequence of Type-2 angiotensin II receptor (Homo sapiens) (P50052 whole entry): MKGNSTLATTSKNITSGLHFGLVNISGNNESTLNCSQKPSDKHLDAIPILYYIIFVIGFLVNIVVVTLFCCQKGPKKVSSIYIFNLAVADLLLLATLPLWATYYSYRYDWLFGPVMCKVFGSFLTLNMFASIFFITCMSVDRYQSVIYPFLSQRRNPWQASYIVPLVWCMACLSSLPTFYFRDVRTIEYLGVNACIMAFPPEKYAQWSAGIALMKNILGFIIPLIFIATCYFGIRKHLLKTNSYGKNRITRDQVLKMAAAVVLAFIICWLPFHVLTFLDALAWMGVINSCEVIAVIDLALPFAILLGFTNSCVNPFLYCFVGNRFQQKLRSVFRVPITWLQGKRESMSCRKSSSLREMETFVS

Row | SMILES | residual activity [1] [%] | residual activity [2] [%] | % Inhibition of Control Specific Binding (Mean n=2) [3] [%] | residual activity [4] [%] | residual activity [5] [%] | residual activity [6] [%] | residual activity [7] [%] | residual activity [8] [%] | residual activity [9] [%] | residual activity [10] [%] | residual activity [11] [%] | residual activity [12] [%] | residual activity [13] [%] | % Inhibition of Control Specific Binding (Mean n=2) [14] [%] | residual activity [15] [%] | residual activity [16] [%] | % Inhibition of Control Specific Binding (Mean n=2) [17] [%] | IC50 (Endothelin-1 receptor) | residual activity [18] [%] | residual activity [19] [%] | other results
1 | CCCOc1ccc([C@H]2[C@H](C(=O)O)[C@@H](c3ccc4c(c3)OCO4)CN2CC(=O)Nc2c(CC)cccc2CC)cc1 [A-192621] | 89 | 87 | 1.5 | 75 | 65 | 97 | 91 | 78 | 97 | 77 | 69 | 74 | 70 | -1.1 | 61 | 85 | -6.1 | 3600 nM (not active) | 100 | 100 | % Inhibition of Control Specific Binding (Mean n=2) [20]: 33.6%; residual activity [21]: 98%; residual activity [22]: 100%; residual activity [23]: 100%; % Inhibition of Control Specific Binding (Mean n=2) [24]: -35.5%; residual activity [25]: 100%; % Inhibition of Control Specific Binding (Mean n=2) [26]: 2.5%; residual activity [27]: 91%; residual activity [28]: 94%; residual activity [29]: 95%; residual activity [30]: 61%; residual activity [31]: 90%; residual activity [32]: 73%; residual activity [33]: 61%; residual activity [34]: 77%; residual activity [35]: 97%; residual activity [36]: 87%; residual activity [37]: 79%
2 | CCCOc1ccc([C@@H]2[C@@H](C(=O)O)[C@H](c3ccc4c(c3)OCO4)CN2CC(=O)Nc2c(CC)cccc2CC)cc1 [A-1806262] | 97 | 97 | -3.8 | 90 | 77 | 98 | 90 | 100 | 96 | 89 | 100 | 77 | 65 | -0.8 | 68 | 89 | -0.3 | 1600 nM (not active) | 100 | 99 | % Inhibition of Control Specific Binding (Mean n=2) [20]: 14.6%; residual activity [21]: 88%; residual activity [22]: 99%; residual activity [23]: 100%; % Inhibition of Control Specific Binding (Mean n=2) [24]: -12.9%; residual activity [25]: 84%; % Inhibition of Control Specific Binding (Mean n=2) [26]: 20.8%; residual activity [27]: 84%; residual activity [28]: 93%; residual activity [29]: 96%; residual activity [30]: 90%; residual activity [31]: 94%; residual activity [32]: 80%; residual activity [33]: 59%; residual activity [34]: 86%; residual activity [35]: 100%; residual activity [36]: 87%; residual activity [37]: 80%
